Test results from US20250051327A1, “MALT-1 MODULATORS” (EXSCIENTIA AI LIMITED, priority 2020, published 2025).

What follows are compounds tested against Recombinant human MALT-1 (amino acids 340-824) (Homo sapiens (Human), UniProt Q9UDY8) (assay: MALT-1 inhibition assay (fluorogenic substrate Ac-LRSR-Rh110-DP)). Details: recombinant human MALT-1, substrate Ac-LRSR-Rh110-DP.
Assay type: biochemical
Protocol: MALT-1 paracaspase activity was measured using the fluorogenic substrate Ac-LRSR-Rh110-DP (purchased from Biosantan GmbH). […] The reaction was initiated by addition of substrate. Final concentrations of MALT-1 and substrate were 3 nM and 10 μM respectively. Reactions were incubated in the dark for 60 minutes at 25° C. […] Percent inhibition values were calculated from relative fluorescence units at different doses and fitted to a 4-parameter logistic curve to determine IC50 values (see Table 1).

Sequence of Recombinant human MALT-1 (amino acids 340-824) (Q9UDY8 340-824): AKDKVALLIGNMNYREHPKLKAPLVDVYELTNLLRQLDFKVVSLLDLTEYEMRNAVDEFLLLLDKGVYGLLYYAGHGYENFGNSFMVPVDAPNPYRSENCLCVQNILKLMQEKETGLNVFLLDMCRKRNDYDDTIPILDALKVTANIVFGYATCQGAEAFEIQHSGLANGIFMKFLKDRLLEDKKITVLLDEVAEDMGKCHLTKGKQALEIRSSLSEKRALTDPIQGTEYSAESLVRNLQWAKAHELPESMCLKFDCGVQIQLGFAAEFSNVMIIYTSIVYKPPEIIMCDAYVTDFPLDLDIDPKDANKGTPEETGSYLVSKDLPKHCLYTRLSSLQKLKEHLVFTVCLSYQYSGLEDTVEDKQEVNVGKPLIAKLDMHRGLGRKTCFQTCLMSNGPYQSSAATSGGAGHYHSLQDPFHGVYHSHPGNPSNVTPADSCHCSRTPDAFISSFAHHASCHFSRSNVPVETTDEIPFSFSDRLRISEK

Row | Structure (SMILES) | IC50 [nM]
1 | CN(C(=O)[C@H](O)C1CCS(=O)(=O)CC1)[C@@H](c1ccc(N2CCCc3c2cnc2cc(Cl)nn32)cc1)C(F)(F)F (relative stereo) [CPD0073972, (2rel-R)—N-[(1S)-1-(4-{4-chloro-2,3,7,10-tetraazatricyclo[7.4.0.0^2,6]trideca-1(9),3,5,7-tetraen-10-yl}phenyl)-2,2,2-trifluoroethyl]-2-(1,1-dioxo-1λ^e-thian-4-yl)-2-hydroxy-N-methylacetamide] | 109
2 | CN(C(=O)[C@H]1CCN(C(=O)C2(O)CC2)C1)[C@@H](c1ccc(N2CCCc3c2cnc2cc(Cl)nn32)cc1)C(F)(F)F (relative stereo) [CPD0073979, (3rel-S)-N-[(1S)-1-[4-(4-chloro-2,3,7,10-tetrazatricyclo[7.4.0.0^2,6]trideca-1(9),3,5,7-tetraen-10-yl)phenyl]-2,2,2-trifluoro-ethyl]-1-(1-hydroxycyclopropanecarbonyl)-N-methyl-pyrrolidine-3-carboxamide] | 75
3 | C[C@@H]1CCc2c(cnc3cc(Cl)nn23)N1c1ccc([C@H](N(C)C(=O)[C@H]2CC[S@](=N)(=O)CC2)C(F)(F)F)cc1 (relative stereo) [CPD0074551, (1rel r 4rel r) N-[(1S)-1-[4-[(11-rel R)-4-chloro-11-methyl-2,3,7,10-tetrazatricyclo[7.4.0.0^2,6]trideca-1(9),3,5,7-tetraen-10-yl]phenyl]-2,2,2-trifluoro-ethyl]-1-imino-N-methyl-1-oxo-thiane-4-carboxamide] | 57
4 | C[C@@H]1CCc2c(cnc3cc(Cl)nn23)N1c1ccc([C@H](N(C)C(=O)[C@H]2CC[S@@](=N)(=O)CC2)C(F)(F)F)cc1 (relative stereo) [CPD0074552, (1rel s 4rel s) N-[(1S)-1-[4-[(11-rel R)-4-chloro-11-methyl-2,3,7,10-tetrazatricyclo[7.4.0.0^2,6]trideca-1(9),3,5,7-tetraen-10-yl]phenyl]-2,2,2-trifluoro-ethyl]-1-imino-N-methyl-1-oxo-thiane-4-carboxamide] | 78
5 | C[C@H]1CCc2c(cnc3cc(Cl)nn23)N1c1ccc([C@H](N(C)C(=O)[C@H]2CC[S@](=N)(=O)CC2)C(F)(F)F)cc1 (relative stereo) [CPD0074564, (1rel r 4rel r) N-[(1S)-1-[4-[(11-rel S)-4-chloro-11-methyl-2,3,7,10-tetrazatricyclo[7.4.0.0^2,6]trideca-1(9),3,5,7-tetraen-10-yl]phenyl]-2,2,2-trifluoro-ethyl]-1-imino-N-methyl-1-oxo-thiane-4-carboxamide] | 248
6 | CN1C[C@@H](C(=O)N(C)[C@@H](c2ccc(N3CCCc4c3cnc3cc(Cl)nn43)cc2)C(F)(F)F)NC1=O (relative stereo) [CPD0075574, (4rel S)-N-[(1S)-1-[4-(4-chloro-2,3,7,10-tetrazatricyclo[7.4.0.0^2,6]trideca-1(9),3,5,7-tetraen-10-yl)phenyl]-2,2,2-trifluoro-ethyl]-N,1-dimethyl-2-oxo-imidazolidine-4-carboxamide] | 80
7 | CN(C(=O)[C@@H]1CNC(=O)N1)[C@@H](c1ccc(N2CCCc3c2cnc2cc(Cl)nn32)cc1)C(F)(F)F (relative stereo) [CPD0075578, (4rel S)-N-[(1S)-1-[4-(4-chloro-2,3,7,10-tetrazatricyclo[7.4.0.0^2,6]trideca-1(9),3,5,7-tetraen-10-yl)phenyl]-2,2,2-trifluoro-ethyl]-N-methyl-2-oxo-imidazolidine-4-carboxamide] | 51
8 | CO[C@@H](C)c1c(Nc2ccc([C@H](N(C)C(=O)[C@H]3CC[S@](=N)(=O)CC3)C(F)(F)F)cc2)cnn2cc(Cl)nc12 (relative stereo) [CPD0082473, (1rel-r, 4rel-r) N-[(1S)-1-[4-[[2-chloro-8-[(1 S)-1-methoxyethyl]imidazo[1,2-b]pyridazin-7-yl]amino]phenyl]-2,2,2-trifluoro-ethyl]-1-imino-N-methyl-1-oxo-thiane-4-carboxamide] | 52
9 | CO[C@@H](C)c1c(Nc2ccc([C@H](N(C)C(=O)[C@H]3CC[S@@](=N)(=O)CC3)C(F)(F)F)cc2)cnn2cc(Cl)nc12 (relative stereo) [CPD0082474, (1rel-s,4rel-s) N-[(1 S)-1-[4-[[2-chloro-8-[(1S)-1-methoxyethyl]imidazo[1,2-b]pyridazin-7-yl]amino]phenyl]-2,2,2-trifluoro-ethyl]-1-imino-N-methyl-1-oxo-thiane-4-carboxamide] | 50
10 | COc1ccc2ncc(Nc3ccc([C@H](N(C)C(=O)C4CCS(=O)(=O)CC4)C(F)(F)F)cc3)c([C@H](C)N)c2n1 (relative stereo) [CPD0084307, N-[(1 S)-1-[4-[[4-[(1rel S)-1-aminoethyl]-6-methoxy-1,5-naphthyridin-3-yl]amino]phenyl]-2,2,2-trifluoroo-ethyl]-N-methyl-1,1-dioxo-thiane-4-carboxamide] | 124
11 | COc1ccc2ncc(Nc3ccc([C@@H](N(C)C(=O)[C@H]4CC[S@@](=N)(=O)CC4)C(F)(F)F)cc3)c([C@@H](C)OC)c2n1 (stereo in doubt) [CPD0077188, (1 rel-r,4rel-r)-1-imino-N-methyl-1-oxo-N-[(1R)-2,2,2-trifluoro-1-[4-({6-methoxy-4-[(1 rel-R)-1-methoxyethyl]-1,5-naphthyridin-3-yl}amino)phenyl]ethyl]-1λ^6-thiane-4-carboxamide] | 255
12 | COc1ccc2ncc(Nc3ccc([C@@H](N(C)C(=O)[C@H]4CC[S@](=N)(=O)CC4)C(F)(F)F)cc3)c([C@@H](C)OC)c2n1 (stereo in doubt) [CPD0077189, (1 rel-s,4rel-s)-1-imino-N-methyl-1-oxo-N-[(1R)-2,2,2-trifluoro-1-[4-({6-methoxy-4-[(1 rel-R)-1-methoxyethyl]-1,5-naphthyridin-3-yl}amino)phenyl]ethyl]-1λ^6-thiane-4-carboxamide] | 274
13 | CN(C(=O)[C@H]1CNC(=O)C1)[C@H](c1ccc(N2CCCc3c2cnc2cc(Cl)nn32)cc1)C(F)(F)F (stereo in doubt) [CPD0077244, (3 rel-R)—N-[(1R)-1-[4-(4-chloro-2,3,7,10-tetrazatricyclo[7.4.0.0^2,6]trideca-1(9),3,5,7-tetraen-10-yl)phenyl]-2,2,2-trifluoro-ethyl]-N-methyl-5-oxo-pyrrolidine-3-carboxamide] | 581
14 | CN(C(=O)C1CC(O)C1)[C@@H](c1ccc(N2CCCc3c2cnc2cc(Cl)nn32)cc1)C(F)(F)F (some centres unmarked) [CPD0073055] | 46
15 | CN(C(=O)[C@@H]1CCN(C(=O)C2(O)CC2)C1)[C@@H](c1ccc(N2CCCc3c2cnc2cc(Cl)nn32)cc1)C(F)(F)F [CPD0073978, (3rel-R)-N-[(1S)-1-[4-(4-chloro-2,3,7,10-tetrazatricyclo[7.4.0.0^2,6]trideca-1(9),3,5,7-tetraen-10-yl)phenyl]-2,2,2-trifluoro-ethyl]-1-(1-hydroxycyclopropanecarbonyl)-N-methyl-pyrrolidine-3-carboxamide] | 54
16 | COc1ccc2ncc(Nc3ccc([C@H](N(C)C(=O)C4CCS(=O)(=O)CC4)C(F)(F)F)cc3)c(COC3CC3)c2n1 [CPD0074048] | 163

Results, then the compound that gave them:

Row | IC50 [nM] | Structure (SMILES)
17 | 377 | C[C@H]1CCc2c(cnc3cc(Cl)nn23)N1c1ccc([C@H](N(C)C(=O)[C@H]2CC[S@@](=N)(=O)CC2)C(F)(F)F)cc1 (relative stereo) [CPD0074565, (1rel s 4rel s) N-[(1S)-1-[4-[(11-rel S)-4-chloro-11-methyl-2,3,7,10-tetrazatricyclo[7.4.0.0^2,6]trideca-1(9),3,5,7-tetraen-10-yl]phenyl]-2,2,2-trifluoro-ethyl]-1-imino-N-methyl-1-oxo-thiane-4-carboxamide]
18 | 42 | CN1C[C@H](C(=O)N(C)[C@@H](c2ccc(N3CCCc4c3cnc3cc(Cl)nn43)cc2)C(F)(F)F)NC1=O (relative stereo) [CPD0075577]
19 | 38 | COc1ccc2ncc(Nc3ccc([C@H](N(C)C(=O)C4CCS(=O)(=O)CC4)C(F)(F)F)cc3)c([C@@H](C)O)c2n1 (relative stereo) [CPD0084256, N-methyl-1,1-dioxo-N-[(1S)-2,2,2-trifluoro-1-[4-[[4-[(1rel R)-1-hydroxyethyl]-6-methoxy-1,5-naphthyridin-3-yl]amino]phenyl]ethyl]thiane-4-carboxamide]
20 | 197 | CN(C(=O)[C@@H]1CNC(=O)O1)[C@@H](c1ccc(N2CCCc3c2cnc2cc(Cl)nn32)cc1)C(F)(F)F (single isomer, unassigned) [CPD0075573]
21 | 44 | CN(C(=O)C1CNC(=O)N1)[C@@H](c1ccc(N2CCCc3c2cnc2cc(Cl)nn32)cc1)C(F)(F)F (stereo in doubt) [CPD0075579, (4rel R)-N-[(1S)-1-[4-(4-chloro-2,3,7,10-tetrazatricyclo[7.4.0.0^2,6]trideca-1(9),3,5,7-tetraen-10-yl)phenyl]-2,2,2-trifluoro-ethyl]-N-methyl-2-oxo-imidazolidine-4-carboxamide]
22 | 355 | CN(C(=O)[C@@H]1CNC(=O)C1)[C@H](c1ccc(N2CCCc3c2cnc2cc(Cl)nn32)cc1)C(F)(F)F (stereo in doubt) [CPD0077245, (3 rel-S)—N-[(1R)-1-[4-(4-chloro-2,3,7,10-tetrazatricyclo[7.4.0.0^2,6]trideca-1(9),3,5,7-tetraen-10-yl)phenyl]-2,2,2-trifluoro-ethyl]-N-methyl-5-oxo-pyrrolidine-3-carboxamide]
23 | 494 | COc1ccc2ncc(Nc3ccc([C@H](N(C)C(=O)C4CCS(=O)(=O)CC4)C(F)(F)F)cc3)c(C(=O)N3CCC3)c2n1 [CPD0074046, N-[(1S)-1-[4-[[4-(azetidine-1-carbonyl)-6-methoxy-1,5-naphthyridin-3-yl]amino]phenyl]-2,2,2-trifluoro-ethyl]-N-methyl-1,1-dioxo-thiane-4-carboxamide]
